In PubChem BioAssay (NCI):
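All cell lines were grown in 96-well plates and treated with compound for 48 hours. TGI: concentration producing complete growth inhibition.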

How the values were obtained:
Experiment in all cases: DTP human tumour cell line panel, 48 h
[1] = tested on: IGROV1 ovarian
[2] = tested on: NCI-H460 lung
[3] = tested on: MOLT-4 leukemia
[4] = tested on: T-47D breast
[5] = tested on: SW-620 colon
[6] = tested on: SR leukemia
[7] = tested on: HS 578T breast
[8] = tested on: UACC-257 melanoma
[9] = tested on: NCI/ADR-RES ovarian
[10] = tested on: UACC-62 melanoma
[11] = tested on: BT-549 breast
[12] = tested on: PC-3 prostate
[13] = tested on: OVCAR-8 ovarian
[14] = tested on: RPMI-8226 leukemia
[15] = tested on: SK-MEL-5 melanoma
[16] = tested on: UO-31 renal
[17] = tested on: TK-10 renal
[18] = tested on: OVCAR-5 ovarian
[19] = tested on: SNB-19 CNS
[20] = tested on: HOP-62 NSCLC
[21] = tested on: SK-MEL-28 melanoma
[22] = tested on: RXF 393 renal
[23] = tested on: SK-MEL-2 melanoma
[24] = tested on: OVCAR-4 ovarian
[25] = tested on: ACHN renal
[26] = tested on: SF-539 CNS
[27] = tested on: K-562 leukemia
[28] = tested on: SN12C renal
[29] = tested on: SK-OV-3 ovarian
[30] = tested on: HCC-2998 colon
[31] = tested on: MALME-3M melanoma
[32] = tested on: HOP-92 NSCLC
[33] = tested on: NCI-H23 lung
[34] = tested on: HCT-15 colon
[35] = tested on: MDA-MB-435
[36] = tested on: 786-0 renal
[37] = tested on: MDA-MB-231 breast
[38] = tested on: MDA-N
[39] = tested on: KM12 colon
[40] = tested on: U251 CNS
[41] = tested on: M14 melanoma
[42] = tested on: A498 renal
[43] = tested on: OVCAR-3 ovarian
[44] = tested on: A549 NSCLC
[45] = tested on: SF-295 CNS
[46] = tested on: HT29 colon
[47] = tested on: LOX IMVI melanoma
[48] = tested on: HCT-116 colon
[49] = tested on: CCRF-CEM leukemia
[50] = tested on: SF-268 CNS
[51] = tested on: NCI-H226 lung
[52] = tested on: MCF7 breast
[53] = tested on: EKVX NSCLC
[54] = tested on: CAKI-1 renal
[55] = tested on: DU-145 prostate
[56] = tested on: COLO 205 colon
[57] = tested on: HL-60(TB) leukemia

Measured: TGI

CCNC(=S)N=Nc1c(O)[nH]c2ccc([N+](=O)[O-])cc12
69 µM: [36]
72.8 µM: [30]
> 100 µM: [1] | [2] | [3] | [4] | [5] | [6] | [7] | [8] | [9] | [10] | [11] | [12] | [13] | [14] | [15] | [16] | [17] | [18] | [19] | [20] | [21] | [23] | [24] | [25] | [26] | [27] | [28] | [29] | [31] | [32] | [33] | [34] | [35] | [37] | [38] | [39] | [40] | [41] | [43] | [44] | [45] | [46] | [47] | [48] | [49] | [50] | [51] | [52] | [53] | [54] | [55] | [56] | [57]
89.3 µM: [42]
80.4 µM: [22]
